We go through 18 molecules from ChEMBL document CHEMBL3870355, “Biological Evaluation in Vitro and in Silico of Azetidin-2-one Derivatives as Potential Anticancer Agents” (ACS Med Chem Lett, 2017).

Data set [1] can be described thus: Cytotoxicity against human SiHa cells by MTT assay. It is filed as functional, cell-based.
A short description of data set [2]: Cytotoxicity against mouse B16F10 cells by MTT assay. Type of data set: functional, cell-based. Particulars: B16-F10. A general note: Tetrazolium assays rely on reduction of a dye to a coloured formazan, in cell work by metabolically active cells.
A short description of data set [3]: Cytotoxicity against human Chang cells by MTT assay. It is filed as toxicity, cell-based.
For data set [4], the system named is B16-F10. Briefly: Induction of apoptosis in mouse B16F10 cells assessed as caspase-3 activation using Ac-DEVD-pNA as substrate by spectrophotometric analysis. Type of data set: functional.
Data set [5] has as its system B16-F10. Briefly: Induction of apoptosis in mouse B16F10 cells assessed as formation of organized shedding vesicles by microscopic analysis. Type of data set: functional, cell-based.
In data set [6] the test system is B16-F10. Kind of data set: Effect on tubulin gene expression in mouse B16F10 cells by GenArise analysis. Type of data set: functional, cell-based.
The subject of data set [7] is B16-F10. Kind of data set: Induction of changes in cell death related gene expression in mouse B16F10 cells by GenArise analysis. Type of data set: functional, cell-based.
For data set [8], the system named is B16-F10. Briefly: Induction of changes in cytoskeleton and cell division processes related gene expression in mouse B16F10 cells by GenArise analysis. It is filed as functional, cell-based.

Active and inactive are the calls of the source. The rule behind the calls is not given here. Bounds are passed on as bounds.

Consider `COc1ccc(N2C(=O)[C@@H](OC)[C@H]2c2ccc(Cl)cc2)cc1` (relative stereo), for which the half-inhibitory concentration (IC50) (in general, the concentration at which inhibition is half-maximal) in data set [1] was 8.61 µM; in data set [2], > 10 µM; in data set [3] it was 3.41 µM.

`COc1ccc([C@@H]2[C@H](OC)C(=O)N2c2ccc(OC)cc2)cc1` (relative stereo): the figures for the IC50 in data set [1], in data set [2] and in data set [3] were 6.36 µM, 2.05 µM and 8.38 µM, respectively.

For `COc1cc([C@@H]2c3cc4c(cc3[C@H](O)[C@H]3COC(=O)[C@H]23)OCO4)cc(OC)c1OC` [PODOFILOX], the Activity in data set [4] came out at 100%. Further, in data set [5], the result was Active.

`COc1ccc(N2C(=O)[C@@H](Oc3ccccc3)[C@H]2c2ccccc2[N+](=O)[O-])cc1`: the IC50 in data set [1] was 0.22 µM; in data set [2], 4.82 µM; in data set [3], 3.73 µM.

On to `COc1ccc(N2C(=O)[C@@H](Oc3ccccc3)[C@H]2c2ccccc2)cc1` (relative stereo), for which the results for the IC50 in data set [1], in data set [2] and in data set [3] were 0.2 µM, 0.28 µM and 2.85 µM, respectively.

On to `O=C1C(Oc2ccccc2)C(c2ccc(Cl)cc2)N1c1nc2ccccc2s1` (racemic), for which the IC50 in data set [1] worked out at 0.09 µM; in data set [2], 0.31 µM; in data set [3], 0.23 µM.

On to `COc1ccc(N2C(=O)[C@@H](Oc3ccccc3)[C@H]2c2ccc([N+](=O)[O-])cc2)cc1` (relative stereo), for which the IC50 stood at 3.64 µM in data set [1], 0.87 µM in data set [2] and 2.08 µM in data set [3].

Take `COc1ccc(N2C(=O)[C@@H](OC)[C@H]2c2ccc(C)cc2)cc1` (relative stereo): the values for the IC50 in data set [1], in data set [2] and in data set [3] were 0.73 µM, 4.12 µM and 3.92 µM, respectively.

Regarding `COc1ccc(N2C(=O)[C@@H](OC)[C@H]2c2ccccc2[N+](=O)[O-])cc1` (relative stereo), the IC50 came out at 7.29 µM in data set [1], 2.91 µM in data set [2] and 9.75 µM in data set [3].

For `COc1ccc([C@@H]2[C@H](Oc3ccccc3)C(=O)N2c2ccc(OC)cc2)cc1` (relative stereo), the values for the half-inhibitory concentration (IC50) in data set [1], in data set [2] and in data set [3] were 0.42 µM, 9.7 µM and 0.63 µM, respectively.

Turning to `O=C1C(Oc2ccccc2)C(c2ccco2)N1c1nc2ccccc2s1` (racemic), the figures for the IC50 in data set [1], in data set [2] and in data set [3] were 0.33 µM, 0.34 µM and 0.017 µM, respectively. For the same molecule, in data set [4], the Activity was 93%.

On to `O=C1C(Oc2ccccc2)C(c2ccc([N+](=O)[O-])cc2)N1c1nc2ccccc2s1` (racemic), for which the IC50 was 0.12 µM in data set [1], 0.45 µM in data set [2] and 0.07 µM in data set [3].

On to `COc1ccc(N2C(=O)[C@@H](OC)[C@H]2c2ccc(F)cc2)cc1` (relative stereo), for which the 50% inhibitory concentration (IC50) stood at 2.89 µM in data set [1], 2.82 µM in data set [2] and 7.57 µM in data set [3].

For the molecule `CC[C@]1(O)C[C@H]2CN(CCc3c([nH]c4ccccc34)[C@@](C(=O)OC)(c3cc4c(cc3OC)N(C=O)[C@H]3[C@@](O)(C(=O)OC)[C@H](OC(C)=O)[C@]5(CC)C=CCN6CC[C@]43[C@@H]65)C2)C1` [VINCRISTINE], the IC50 in data set [1], in data set [2] and in data set [3] was 0.01 µM in each case.

Regarding `COc1ccc(N2C(=O)[C@@H](Oc3ccccc3)[C@H]2c2ccc(C)cc2)cc1` (relative stereo), the IC50 was 0.07 µM in data set [1], 1.21 µM in data set [2] and > 10 µM in data set [3]. For the same molecule, the Activity in data set [4] is given as 100%. In addition, the outcome in data set [5], in data set [6], in data set [7] and in data set [8] was Active.

In the case of `COc1ccc(N2C(=O)[C@@H](Oc3ccccc3)[C@H]2c2ccc(F)cc2)cc1` (relative stereo), the IC50 in data set [1] came out at 0.08 µM; in data set [2], 3.26 µM; in data set [3] it was 0.74 µM.

In the case of `O=C1C(Oc2ccccc2)C(c2ccncc2)N1c1nc2ccccc2s1` (racemic), the IC50 in data set [1] came out at 1.34 µM; in data set [2], 1.7 µM; in data set [3], 1.03 µM.

For the molecule `COc1ccc(N2C(=O)[C@@H](OC)[C@H]2c2ccc([N+](=O)[O-])cc2)cc1` (relative stereo), the IC50 in data set [1] was 8.13 µM; in data set [2], 2.08 µM; in data set [3], > 10 µM. For the same molecule, the Activity in data set [4] is given as 88%.
